Tests used:
Parameters in all cases: purchased Milipore (Millipore)
[1] = target: T1, Human adrenergic α1B receptor (Homo sapiens, UniProt P35368); assay: Radioligand binding, adrenergic α1B (Protocol Group B); details: for inhibition at 0.3 µM: read-out: Percentage inhibition of ligand binding, Adrenergic α1B (0.3 μM); for Ki: estimated Ki
T1 sequence (P35368 1-520): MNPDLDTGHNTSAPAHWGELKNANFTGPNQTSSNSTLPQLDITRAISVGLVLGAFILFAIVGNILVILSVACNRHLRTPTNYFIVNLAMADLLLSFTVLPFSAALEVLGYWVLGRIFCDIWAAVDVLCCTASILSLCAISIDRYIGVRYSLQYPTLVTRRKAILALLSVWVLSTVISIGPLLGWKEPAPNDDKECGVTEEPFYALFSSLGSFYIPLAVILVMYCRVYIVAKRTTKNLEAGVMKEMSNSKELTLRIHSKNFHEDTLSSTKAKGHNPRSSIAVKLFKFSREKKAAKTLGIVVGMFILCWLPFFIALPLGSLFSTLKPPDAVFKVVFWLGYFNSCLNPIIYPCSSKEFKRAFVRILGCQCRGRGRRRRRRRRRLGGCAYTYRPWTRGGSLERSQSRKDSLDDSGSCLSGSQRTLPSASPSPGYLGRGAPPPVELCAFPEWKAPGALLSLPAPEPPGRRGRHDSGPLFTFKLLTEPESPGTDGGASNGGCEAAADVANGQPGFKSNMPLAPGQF
How it was run: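 Values are percent inhibition of specific [3H]prazosin (0.3 nM) binding or estimated Ki, from filtration counting. Human α1B recombinant membranes, Tris-HCl pH 7.4 buffer with MgCl2 and EDTA, 60 min at 25 °C, 1% DMSO vehicle; 10 μM prazosin defined nonspecific binding.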

[2] = target: T2, Human adrenergic α2B receptor (Homo sapiens, UniProt P18089); assay: Radioligand binding, adrenergic α2B (Protocol Group B); details: for inhibition at 0.01 µM: 10 nM compound, read-out: Percentage inhibition of ligand binding, Adrenergic α2B (10 nM); for inhibition at 0.01 µM / inhibition at 0.03 µM / Ki / inhibition at 0.1 µM: Protocol Group B; for inhibition at 0.03 µM: 30 nM compound, read-out: Percentage inhibition of ligand binding, Adrenergic α2B (30 nM); for Ki: estimated Ki, read-out: Ki α2B; for inhibition at 0.1 µM: 0.1 μM compound, read-out: Percentage inhibition of ligand binding, Adrenergic α2B (0.1 μM)
T2 sequence (P18089 1-450): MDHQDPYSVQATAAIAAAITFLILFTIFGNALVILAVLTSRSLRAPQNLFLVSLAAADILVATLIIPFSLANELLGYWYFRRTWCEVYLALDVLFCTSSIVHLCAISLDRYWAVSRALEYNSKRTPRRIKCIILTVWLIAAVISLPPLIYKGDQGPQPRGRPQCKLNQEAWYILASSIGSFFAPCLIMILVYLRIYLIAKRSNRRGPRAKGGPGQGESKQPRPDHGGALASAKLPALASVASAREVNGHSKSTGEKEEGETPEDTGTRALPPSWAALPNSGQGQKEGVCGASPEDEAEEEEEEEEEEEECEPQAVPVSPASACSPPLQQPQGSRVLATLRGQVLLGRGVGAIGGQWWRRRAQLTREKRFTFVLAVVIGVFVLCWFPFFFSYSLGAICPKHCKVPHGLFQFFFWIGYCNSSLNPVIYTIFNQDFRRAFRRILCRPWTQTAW
How it was run: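 Compounds at various concentrations in 1% DMSO were tested on recombinant membranes in Tris-HCl pH 7.4 buffer containing MgCl2, CaCl2 and 0.2% BSA.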

[3] = target: T3, Human adrenergic α2A receptor (Homo sapiens, UniProt P08913); assay: Radioligand binding, adrenergic α2A (Protocol Group B); details: for Percentage inhibition of ligand binding, Adrenergic α2A (0.1 μM): 0.1 μM compound; for inhibition at 0.3 µM: read-out: Percentage inhibition of ligand binding, Adrenergic α2A (0.3 μM); for Ki: estimated Ki
T3 sequence (P08913 1-465): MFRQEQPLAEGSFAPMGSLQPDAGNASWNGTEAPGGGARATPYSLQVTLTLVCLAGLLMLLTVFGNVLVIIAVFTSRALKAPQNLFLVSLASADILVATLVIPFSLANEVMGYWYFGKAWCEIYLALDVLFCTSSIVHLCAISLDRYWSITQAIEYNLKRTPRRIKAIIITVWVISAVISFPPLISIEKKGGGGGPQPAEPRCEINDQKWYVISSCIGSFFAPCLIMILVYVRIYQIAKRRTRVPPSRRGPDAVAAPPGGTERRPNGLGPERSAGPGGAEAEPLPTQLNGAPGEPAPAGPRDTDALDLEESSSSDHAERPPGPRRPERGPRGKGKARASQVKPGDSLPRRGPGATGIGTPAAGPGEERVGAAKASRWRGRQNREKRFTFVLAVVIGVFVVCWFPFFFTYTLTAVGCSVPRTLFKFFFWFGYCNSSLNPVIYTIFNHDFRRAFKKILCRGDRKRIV
How it was run: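 Compounds (1% DMSO vehicle, various concentrations) competed against 2 nM [^3H]MK-912 on recombinant receptor membranes for 60 min at 25° C, Tris-HCl pH 7.4 buffer with Mg2+, Ca2+, BSA. Bound radioligand filtered and counted; 10 μM rauwolscine set nonspecific binding. Values: percent inhibition of specific binding or estimated Ki.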

[4] = 0.3 μM compound, Protocol Group B
[5] = 10 nM compound, concentration series, 0.01 µM
[6] = 0.032 μM compound, concentration series, 0.032 µM
[7] = 0.1 μM compound, Protocol Group B
[8] = 3.2 nM compound, concentration series, 0.0032 µM
[9] = 0.3 μM compound, Protocol Group B, 0.3 µM

inhibition at 0.3 µM [1, 4]	Ki ([1]; Protocol Group B)	inhibition at 0.01 µM [2]	inhibition at 0.03 µM [2]	Ki [2]	Percentage inhibition of ligand binding, Adrenergic α2A (0.1 μM) ([3]; Protocol Group B)	inhibition at 0.3 µM [3, 4]	Ki ([3]; Protocol Group B)	Percentage inhibition of ligand binding, Adrenergic α1B (0.1 μM) [1, 7]	inhibition at 0.1 µM [2]	SMILES	also measured
–	10 nM	–	–	1.85 nM	–	–	50 nM	–	–	Cc1ccc2c(c1)c1c(n2CC(C)(O)c2ccncc2)CCN2CCCC12 (single isomer, unassigned) [13a]	–
–	111 nM	64%	85%	2.8 nM	46%	–	50 nM	29%	96%	CCOC(Cn1c2c(c3cc(C)ccc31)CN(C)CC2)c1ccncc1 (single isomer, unassigned) [43a]	Percentage inhibition of ligand binding, Adrenergic α1B (0.3 μM) [1, 9]: 55%; Percentage inhibition of ligand binding, Adrenergic α2A (0.3 μM) [3, 9]: 63%
–	269 nM	–	–	3.6 nM	–	–	126 nM	–	–	Cc1ccc2c(c1)c1c(n2CC(OC(=O)N2CCCC2)c2ccncc2)CCN(C)C1 (single isomer, unassigned) [4b]	–

Second part, the compound before the results:

SMILES	inhibition at 0.3 µM [1, 4]	Ki ([1]; Protocol Group B)	inhibition at 0.01 µM [2]	inhibition at 0.03 µM [2]	Ki [2]	Percentage inhibition of ligand binding, Adrenergic α2A (0.1 μM) ([3]; Protocol Group B)	inhibition at 0.3 µM [3, 4]	Ki ([3]; Protocol Group B)	Percentage inhibition of ligand binding, Adrenergic α1B (0.1 μM) [1, 7]	inhibition at 0.1 µM [2]	also measured
Cc1cc(F)cc2c3c(n(CC(O)c4ccncc4)c12)CCN1CCCC31 (single isomer, unassigned) [136a]	70%	14.7 nM	91%	95%	1.5 nM	69%	87%	14.4 nM	–	–	inhibition at 0.1 µM ([1]; 0.1 μM compound, Protocol Group B, read-out: Percentage inhibition of ligand binding, Adrenergic α1B (0.1 μM)): 31%
Cc1cc(C)c2c(c1)c1c(n2CC(C)(O)c2ccncc2)CCN2CCCC12 (single isomer, unassigned) [19a]	93%	7.5 nM	94%	99%	1 nM	72%	87%	16.2 nM	82%	100%	inhibition at 0.00032 µM ([1]; 0.32 nM compound, concentration series, read-out: Percentage inhibition of ligand binding, Adrenergic α1B, 0.32 nM): 13%; inhibition at 0.001 µM ([1]; 1 nM compound, concentration series, read-out: Percentage inhibition of ligand binding, Adrenergic α1B, 1 nM): 2%; inhibition at 0.0032 µM ([1]; 3.2 nM compound, concentration series, read-out: Percentage inhibition of ligand binding, Adrenergic α1B, 3.2 nM): 7%; Percentage inhibition of ligand binding, Adrenergic α1B, 10 nM [1, 5]: 24%; Percentage inhibition of ligand binding, Adrenergic α1B, 0.032 μM [1, 6]: 61%; inhibition at 0.32 µM ([1]; 0.32 μM compound, concentration series, read-out: Percentage inhibition of ligand binding, Adrenergic α1B, 0.32 μM): 96%; inhibition at 1 µM ([1]; 1 μM compound, concentration series, read-out: Percentage inhibition of ligand binding, Adrenergic α1B, 1 μM): 95%; inhibition at 32 pM ([2]; 0.032 nM compound, concentration series, read-out: Percentage inhibition of ligand binding, Adrenergic α2B, 0.032 nM): 3%; Percentage inhibition of ligand binding, Adrenergic α2B, 0.1 nM ([2]; 0.1 nM compound, concentration series, 0.0001 µM): 8%; Percentage inhibition of ligand binding, Adrenergic α2B, 0.32 nM ([2]; 0.32 nM compound, concentration series, 0.00032 µM): 9%; Percentage inhibition of ligand binding, Adrenergic α2B, 1 nM ([2]; 1 nM compound, concentration series, 0.001 µM): 18%; Percentage inhibition of ligand binding, Adrenergic α2B, 3.2 nM [2, 8]: 64%; inhibition at 0.032 µM ([2]; 0.032 μM compound, concentration series, read-out: Percentage inhibition of ligand binding, Adrenergic α2B, 0.032 μM): 99%; inhibition at 0.001 µM ([3]; 1 nM compound, concentration series, read-out: Percentage inhibition of ligand binding, Adrenergic α2A, 1 nM): 3%; Percentage inhibition of ligand binding, Adrenergic α2A, 3.2 nM [3, 8]: 0%; Percentage inhibition of ligand binding, Adrenergic α2A, 10 nM [3, 5]: 22%; Percentage inhibition of ligand binding, Adrenergic α2A, 0.032 μM [3, 6]: 49%; Percentage inhibition of ligand binding, Adrenergic α2A, 0.32 μM ([3]; 0.32 μM compound, concentration series, 0.32 µM): 92%; inhibition at 1 µM ([3]; 1 μM compound, concentration series, read-out: Percentage inhibition of ligand binding, Adrenergic α2A, 1 μM): 98%; inhibition at 3.2 µM ([3]; 3.2 μM compound, concentration series, read-out: Percentage inhibition of ligand binding, Adrenergic α2A, 3.2 μM): 100%

From patent US20150315188A1, “COMPOUNDS AND METHODS FOR TREATMENT OF HYPERTENSION” (MEDIVATION TECHNOLOGIES, INC., priority 2012, published 2015)
